According to patent US6844190B2, “St-B17 serotonin receptor” (The United States of America as represented by the …, priority 1992, dated 2005):
Where two headings read alike, the source gives them in different places.

Key:
[1] = molecular target: T1, St-B17 serotonin receptor (Rattus norvegicus, UniProt P31388, L57V); experiment: [125I]-LSD competition binding, Cos-7 cell membranes expressing St-B17; set-up: expressed in transfected cells; host or cells: Cos-7 cells, transient transfection, crude membranes; conditions: for affinity for St-B17 (in words): qualitative statement
T1 sequence (P31388 with tags, fused parts or gaps L57V): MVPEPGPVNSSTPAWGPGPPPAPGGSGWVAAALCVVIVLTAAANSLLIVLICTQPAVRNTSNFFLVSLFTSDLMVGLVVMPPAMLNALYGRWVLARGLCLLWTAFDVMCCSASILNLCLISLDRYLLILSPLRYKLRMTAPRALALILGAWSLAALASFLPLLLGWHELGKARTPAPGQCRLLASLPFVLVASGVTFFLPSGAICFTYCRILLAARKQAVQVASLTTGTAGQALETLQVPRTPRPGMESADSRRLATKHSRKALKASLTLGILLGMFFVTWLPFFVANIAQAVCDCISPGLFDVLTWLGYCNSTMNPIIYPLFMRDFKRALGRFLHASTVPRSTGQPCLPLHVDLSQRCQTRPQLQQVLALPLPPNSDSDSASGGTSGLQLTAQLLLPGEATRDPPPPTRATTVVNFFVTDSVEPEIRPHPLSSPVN
Procedure: (§1) This experiment was performed on Cos-7 cell membranes expressing the St-B17 serotonin receptor.

[2] = molecular target: T2, St-B17 serotonin receptor (Rattus norvegicus, UniProt P31388); experiment: as above; conditions: read-out: Ki vs. [125I]-LSD, Mean ± SEM
T2 construct: expressed in transfected cells; host or cells: Cos-7 cells, transient transfection, crude membranes
T2 sequence (P31388 with tags, fused parts or gaps L57V): as above
Procedure: as §1

[3] = molecular target: T1, St-B17 serotonin receptor; experiment: [3H]-5-HT competition binding, Cos-7 cell membranes expressing St-B17; set-up: expressed in transfected cells; host or cells: Cos-7 cells, transient transfection, crude membranes
[4] = molecular target: T3, St-B17 stably expressed in HEK-293 cells (Rattus norvegicus, UniProt P31388, L57V); experiment: cAMP accumulation in intact HEK-293 cells stably expressing St-B17; format: cell-based
T3 construct: expressed in transfected cells
T3 sequence (P31388 with tags, fused parts or gaps L57V): as above
Procedure: Human Embryonic Kidney cells (HEK 293 available from the ATCC) were stably co-transfected in 150mm dishes by the CaPO4 technique with 30 μg of pSRα-B17 and 3 μg of pMam-neo (INVITROGEN). These HEK 293 cells were then subjected to selection with 600 μg/ml genetecin (G418) (GIBCO). The resistant colonies were collected and screened for receptor expression by [^125I]-LSD binding as described in Example 6.
Intracellular cAMP levels were determined after a 5 minute incubation of intact cells with various test compounds at 37° C. in the presence of the cAMP phosphodiesterase inhibitor RO-20-1724, using a modification of a previously described cAMP assay (Monsma, F. J., Jr., Barton, A. C., and Sibley, D. R. (1990) J. Neurochemistry 54, 1200-1207) wherein the adrenal cAMP binding protein was replaced with 0.8 mg/ml protein kinase A in water.

[5] = tested on: adenylyl cyclase activity in the NCB-20 neuroblastoma cell line; conditions: NCB-20 cells, literature; read-out: EC50, activation of adenylyl cyclase; cited from earlier work
[6] = molecular target: T1, St-B17 serotonin receptor; experiment: Saturation analysis of [3H]-5-HT binding in transfected Cos-7 cells; set-up: expressed in transfected cells; host or cells: Cos-7 cells, transient transfection, crude membranes
From the text: The binding of [^3H]-5-HT was similarly not affected by the addition of guanine nucleotides.

[7] = molecular target: T1, St-B17 serotonin receptor
[8] = Ki vs. [125I]-LSD, Mean ± SEM, 0.5 nM [125I]-LSD, Cos-7 membranes, n=3, Cheng-Prussoff from IC50
[9] = 0.5 nM [125I]-LSD, Cos-7 membranes, n=3, Cheng-Prussoff from IC50
[10] = 5 nM [3H]-5-HT, Cos-7 membranes, n=3, Cheng-Prussoff from IC50, read-out: Ki vs. [3H]-5-HT, Mean ± SEM
[11] = 10 μM final concentration, FIG. 5
[12] = read-out: Ki vs. [3H]-5-HT, Mean ± SEM
[13] = screened compounds, radioligand not restated, read-out: inhibition constant (Ki)
[14] = inhibition constant (Ki), screened compounds, radioligand not restated

## c1ccc2c(N3CCNCC3)cccc2c1 [1(1-naphthyl)piperazine]
[1]; [8]
  Ki: 104 ± 13.8 nM

## CCN(CC)C(=O)[C@@H]1C=C2c3cccc4[nH]c(Br)c(c34)C[C@H]2N(C)C1 [2-Br-LSD]
[2]; [9]
  Ki: 17.1 ± 1.11 nM

## COc1ccccc1N1CCNCC1 [2-MPP]
[2]; [9]
  Ki: 3050 ± 321 nM

## NCCc1c[nH]c2ccc(OCc3ccccc3)cc12 [5-Benzyloxytryptamine]
[1]; [8]
  Ki: 110 ± 17.9 nM

## NCCc1c[nH]c2ccc(C(N)=O)cc12 [5-Carboxamidotryptamine]
[3]; [10]
  Ki: 253 ± 20 nM
[2]; [9]
  Ki: 774 ± 84.4 nM
[4]; [11]
  effect on cAMP levels on their own (in words): elicit an increase in cAMP levels

## NCCc1c[nH]c2ccc(O)cc12 [5-HT, 5-hydroxytryptamine]
[1]; addition of GppNHp
  influence of guanine nucleotide analogue GppNHp on affinity: not influenced
[1]; vs. [125I]-LSD
  Hill coefficient for the competition curve: not significantly different from unity
[5]
  EC50: 300 nM
[2]; [9]
  Ki: 151 ± 12.8 nM
[4]
  EC50: 145 nM

## CNCCc1c[nH]c2ccc(O)cc12 [5-Hydroxy-N,ω-methyltryptamine]
[2]; [9]
  Ki: 58 ± 8.32 nM

## COc1ccc2[nH]cc(CCN)c2c1 [5-methoxytryptamine]
[1]; [8]
  Ki: 38.9 ± 3.95 nM
[4]; [11]
  effect on cAMP levels on their own (in words): elicit an increase in cAMP levels

## CCCN(CCC)C1CCc2cccc(O)c2C1 (centres unmarked) [8-OH-DPAT]
[1]
  affinity for St-B17 (in words): relatively low affinity

## CN(C)CCC=C1c2ccccc2CCc2ccccc21 [Amitriptyline]
[3]; [12]
  Ki: 82 ± 6 nM
[2]; [9]
  Ki: 69.6 ± 7.21 nM

## Clc1ccc2c(c1)C(N1CCNCC1)=Nc1ccccc1O2 [Amoxipine]
[2]; [9]
  Ki: 30.4 ± 1.64 nM
[4]; [11]
  effect on cAMP levels on their own (in words): no significant effect on cAMP levels
  effect on the cAMP response elicited by 5-HT (in words): substantially inhibit the response elicited by 5-HT
  functional classification at St-B17 receptor: antagonists

## COc1cc(N)c(Cl)cc1C(=O)NC1CCN2CCCC1C2 (centres unmarked) [BRL 24924]
[1]; [13]
  Ki: > 10000 nM

## CN1C2CCCC1CC(NC(=O)c1nn(C)c3ccccc13)C2 (centres unmarked) [BRL 43694A]
[1]; [13]
  Ki: > 10000 nM

## CN1CCN(c2nc3cc(C(F)(F)F)ccc3n3cccc23)CC1.O=C(O)/C=C\C(=O)O.O=C(O)/C=C\C(=O)O [CGS 12066B]
[1]
  affinity for St-B17 (in words): relatively low affinity
[2]; [9]
  Ki: 738 ± 66.6 nM

## CC(C)C[C@H]1C(=O)N2CCC[C@H]2[C@]2(O)O[C@](NC(=O)[C@@H]3C[C@@H]4c5cccc6[nH]cc(c56)C[C@H]4N(C)C3)(C(C)C)C(=O)N12 [Dihydroergocryptine]
[1]; [8]
  Ki: 161 ± 13.2 nM

## CN1C[C@H](C(=O)N[C@]2(C)O[C@@]3(O)[C@@H]4CCCN4C(=O)[C@H](Cc4ccccc4)N3C2=O)C[C@@H]2c3cccc4[nH]cc(c34)C[C@H]21 [Dihydroergotamine]
[1]; [8]
  Ki: 13.1 ± 0.9 nM
[3]
  Ki: 5.4 ± 5.4 nM
[4]; [11]
  effect on cAMP levels on their own (in words): stimulate cAMP accumulation
  functional classification at St-B17 receptor: partial agonists

## CN1[C@@H]2CC[C@H]1C[C@@H](OC(=O)c1c[nH]c3ccccc13)C2 [ICS 205,930]
[1]
  affinity for St-B17 (in words): virtually no affinity

## CN1C[C@H](CC#N)C[C@@H]2c3cccc4[nH]c(Cl)c(c34)C[C@H]21 [Lergotrile]
[2]
  Ki: 36.5 ± 1.04 nM

## CN1CCN(C2=Nc3ccccc3Oc3ccc(Cl)cc32)CC1 [Loxapine]
[3]; [12]
  Ki: 56 ± 1.5 nM
[2]; [9]
  Ki: 64.75 ± 0.6 nM

## CN1[C@@H]2CC[C@H]1C[C@@H](OC(=O)c1cc(Cl)cc(Cl)c1)C2 [MDL 72222]
[1]
  affinity for St-B17 (in words): virtually no affinity
[1]; [13]
  Ki: > 10000 nM

## CN1C[C@@H](NS(=O)(=O)N(C)C)C[C@@H]2c3cccc4c3c(cn4C)C[C@H]21 [Mesulergine]
[2]; [9]
  Ki: 1720 ± 248 nM

## CN1C[C@H](CNC(=O)OCc2ccccc2)C[C@@H]2c3cccc4c3c(cn4C)C[C@H]21 [Metergoline]
[3]; [12]
  Ki: 61 ± 23 nM
[2]; [9]
  Ki: 30 ± 0.38 nM

## CC[C@@H](CO)NC(=O)[C@@H]1C=C2c3cccc4c3c(cn4C)C[C@H]2N(C)C1 [MethyscrGide]
[2]; [9]
  Ki: 372 ± 72.7 nM

## COc1ccc2[nH]cc(CCN(C)C)c2c1 [N,N-Dimethyl-5-methoxytryptamine]
[1]; [8]
  Ki: 79.8 ± 3.86 nM

## COc1ccccc1N1CCN(CCCCN2C(=O)c3ccccc3C2=O)CC1 [NAN-190]
[1]; [14]
  Ki: > 10000 nM

## CNCCC=C1c2ccccc2CCc2ccccc21 [Nortriptyline]
[2]; [9]
  Ki: 147 ± 2.61 nM

## Nc1ccc(CCN2CCN(c3cccc(C(F)(F)F)c3)CC2)cc1 [PAPP]
[2]; [9]
  Ki: 806 ± 75.2 nM

## CCCN1C[C@H](CSC)C[C@@H]2c3cccc4[nH]cc(c34)C[C@H]21 [Pergolide]
[1]
  affinity for St-B17 (in words): relatively high affinity
[2]; [9]
  Ki: 29.9 ± 7.31 nM

## Cc1nc2sccn2c(=O)c1CCN1CCC(=C(c2ccc(F)cc2)c2ccc(F)cc2)CC1 [Ritanerin]
[3]; [10]
  Ki: 16 ± 2 nM
[2]; [9]
  Ki: 44.1 ± 4.35 nM

## FC(F)(F)c1cccc(N2CCNCC2)c1 [TFMPP]
[1]; [8]
  Ki: 482 ± 37.2 nM

## NCCc1c[nH]c2ccc(O)cc12 [[^3H]-5-HT]
[6]; [3H]-5-HT saturation binding
  Bmax: 1-3 pMoles/mg protein
[6]; [3H]-5-HT saturation binding, n=3
  Kd: 37 nM
[6]; addition of guanine nucleotides
  effect of guanine nucleotides on binding: not affected

## CCN(CC)C(=O)[C@@H]1C=C2c3cccc4[nH]c(I)c(c34)C[C@H]2N(C)C1 [[^125I]-LSD, lysergic acid diethylamide]
[1]
  affinity for St-B17 (in words): relatively high affinity
[7]; KD, representative experiment (FIG. 1, scatchard analysis), single representative experiment
  Kd: 1.5 nM
[7]; dissociation constant (KD), [125I]-LSD saturation binding, Cos-7 membranes, mean n=3
  Kd: 1.26 nM
[7]; range over experiments
  maximum binding (Bmax): 2-5 pMoles/mg protein
[7]; single representative experiment
  Bmax, representative experiment (FIG. 1): 3.4 pMoles mg protein^−1

## CN(C)CCCC1(c2ccc(F)cc2)OCc2cc(C#N)ccc21 (centres unmarked) [citalopram]
[1]; [14]
  Ki: > 10000 nM

## NCCc1ccc(O)c(O)c1 [dopamine]
[1]; [13]
  Ki: > 10000 nM

## CNC[C@H](O)c1ccc(O)c(O)c1 [epinephrine]
[1]; [13]
  Ki: > 10000 nM

## CCNC(C)Cc1cccc(C(F)(F)F)c1 (centres unmarked) [fenfluramine]
[1]; [14]
  Ki: > 10000 nM

## NCCc1c[nH]cn1 [histamine]
[1]; [13]
  Ki: > 10000 nM

## c1ccc2c(c1)OCC(C1=NCCN1)O2 (centres unmarked) [idazoxan]
[1]; [13]
  Ki: > 10000 nM

## O=C(c1ccc(F)cc1)C1CCN(CCn2c(=O)[nH]c3ccccc3c2=O)CC1 [ketanserin]
[1]
  affinity for St-B17 (in words): relatively low affinity
[1]; [13]
  Ki: > 10000 nM

## Clc1cccc(N2CCNCC2)c1 [mCPP]
[2]; [9]
  Ki: 2310 ± 343 nM

## COc1ccc2[nH]cc(CCNC(C)=O)c2c1 [melatonin]
[1]; [13]
  Ki: > 10000 nM

## NC[C@H](O)c1ccc(O)c(O)c1 [norepinephrine]
[1]; [13]
  Ki: > 10000 nM

## NCC(O)c1ccc(O)cc1 (centres unmarked) [octopamine]
[1]; [13]
  Ki: > 10000 nM

## Fc1ccc([C@@H]2CCNC[C@H]2COc2ccc3c(c2)OCO3)cc1 [paroxetine]
[1]; [14]
  Ki: > 10000 nM

## CC(C)NCC(O)COc1cccc2[nH]ccc12 (centres unmarked) [pindolol]
[1]; [13]
  Ki: > 10000 nM

## O=C(CCCN1CCC2(CC1)C(=O)NCN2c1ccccc1)c1ccc(F)cc1 [spiroperidol]
[1]; [13]
  Ki: > 10000 nM

## NCCc1ccc(O)cc1 [tyramine]
[1]; [13]
  Ki: > 10000 nM

## COc1cc(N)c(Cl)cc1C(=O)NC1CN2CCC1CC2 (centres unmarked) [zacopride]
[1]; [13]
  Ki: > 10000 nM

## CN(C)C/C=C(/c1ccc(Br)cc1)c1cccnc1 [zimelidine]
[1]; [13]
  Ki: > 10000 nM

## N,ω-Methyltryptamine
[2]; [9]
  Ki: 342 ± 32.2 nM
